Results published in the supplement of paper PMC10307832.

Experiments:
Assay in all cases: relative viability (nuclei count vs DMSO), 5 days (fraction); higher = more cells survive
[1] = test system: NCI-H1651; settings: first compound 4 µM
In short: (§1)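 Lung cancer cell lines in 1536-well plates got either a single drug or a fixed anchor-drug dose together with five library-drug doses (not always all listed) in √10 steps, by pin tool, on the day after seeding. Nuclei were counted after 5 days, and relative viability is the treated-to-vehicle ratio of nuclei counts. Values are medians of duplicate plates.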

[2] = test system: NCI-H1793
In short: as §1

[3] = test system: NCI-H1944
In short: as §1

[4] = test system: NCI-H2023
In short: as §1

[5] = test system: NCI-H2085
In short: as §1

[6] = test system: NCI-H2087
In short: as §1

[7] = test system: NCI-H2405
In short: as §1

[8] = test system: NCI-H520
In short: as §1

[9] = test system: NCI-H650
In short: as §1

[10] = test system: NCI-H838
In short: as §1

[11] = test system: SK-MES-1
In short: as §1

Cc1sc2c(c1C)C(c1ccc(Cl)cc1)=N[C@@H](CC(=O)OC(C)(C)C)c1nnc(C)n1-2 [JQ1] + CS(=O)(=O)CCNCc1ccc(-c2ccc3ncnc(Nc4ccc(OCc5cccc(F)c5)c(Cl)c4)c3c2)o1 [Lapatinib] (partner 2 µM)
relative viability [1]: 0.408
relative viability ([2]; first compound 0.04 µM): 0.617
relative viability ([2]; first compound 0.1265 µM): 0.776
relative viability ([2]; first compound 0.4 µM): 0.805
relative viability ([2]; first compound 1.265 µM): 0.652
relative viability ([2]; first compound 4 µM): 0.576
relative viability ([3]; first compound 0.04 µM): 0.79
relative viability ([3]; first compound 0.1265 µM): 0.543
relative viability ([3]; first compound 0.4 µM): 0.614
relative viability ([3]; first compound 1.265 µM): 0.584
relative viability ([3]; first compound 4 µM): 0.454
relative viability ([4]; first compound 0.04 µM): 0.738
relative viability ([4]; first compound 0.1265 µM): 0.463
relative viability ([4]; first compound 0.4 µM): 0.443
relative viability ([4]; first compound 1.265 µM): 0.334
relative viability ([4]; first compound 4 µM): 0.258
relative viability ([5]; first compound 0.04 µM): 0.748
relative viability ([5]; first compound 0.1265 µM): 0.723
relative viability ([5]; first compound 0.4 µM): 0.621
relative viability ([5]; first compound 1.265 µM): 0.409
relative viability ([5]; first compound 4 µM): 0.396
relative viability ([6]; first compound 0.04 µM): 1.12
relative viability ([6]; first compound 0.4 µM): 0.904
relative viability ([6]; first compound 1.265 µM): 0.786
relative viability ([6]; first compound 4 µM): 0.506
relative viability ([7]; first compound 0.04 µM): 1.19
relative viability ([7]; first compound 0.4 µM): 1.12
relative viability ([7]; first compound 1.265 µM): 0.587
relative viability ([7]; first compound 4 µM): 0.485
relative viability ([8]; first compound 0.04 µM): 0.874
relative viability ([8]; first compound 0.1265 µM): 0.895
relative viability ([8]; first compound 0.4 µM): 0.716
relative viability ([8]; first compound 1.265 µM): 0.264
relative viability ([8]; first compound 4 µM): 0.243
relative viability ([9]; first compound 0.04 µM): 0.959
relative viability ([9]; first compound 0.1265 µM): 0.527
relative viability ([9]; first compound 0.4 µM): 0.647
relative viability ([9]; first compound 1.265 µM): 0.259
relative viability ([9]; first compound 4 µM): 0.295
relative viability ([10]; first compound 0.04 µM): 0.991
relative viability ([10]; first compound 0.1265 µM): 0.462
relative viability ([10]; first compound 0.4 µM): 0.454
relative viability ([10]; first compound 1.265 µM): 0.237
relative viability ([10]; first compound 4 µM): 0.191
relative viability ([11]; first compound 0.04 µM): 0.455
relative viability ([11]; first compound 0.1265 µM): 0.436
relative viability ([11]; first compound 0.4 µM): 0.361
relative viability ([11]; first compound 1.265 µM): 0.292
relative viability ([11]; first compound 4 µM): 0.274
